Results from ChEMBL document CHEMBL3596138, “A double effect molecular switch leads to a novel potent negative allosteric modulator of metabotropic glutamate receptor 5” (Medchemcomm, 2014).

Key:
[1] = biological target: Metabotropic glutamate receptor 5 (Rattus norvegicus, UniProt P31424); assay: Negative allosteric modulator activity at rat mGlu5 receptor expressed in HEK293 cells assessed as effect on quisqualate-induced inositol phosphate accumulation incubated for 30 mins by florescence assay; type: functional, cell-based
[2] = biological target: Metabotropic glutamate receptor 4 (Rattus norvegicus, UniProt P31423); assay: Positive allosteric modulator activity at rat mGlu4 receptor expressed in HEK293 cells assessed as effect on L-AP4-induced inositol phosphate accumulation incubated for 30 mins by florescence assay; type: functional, cell-based
[3] = biological target: Metabotropic glutamate receptor 5 (Rattus norvegicus) (UniProt P31424); conditions: HEK293
Description: Agonist activity at rat mGlu5 receptor expressed in HEK293 cells by inositol phosphate accumulation assay

[4] = biological target: Metabotropic glutamate receptor 4 (Rattus norvegicus) (UniProt P31423); conditions: HEK293
Description: Agonist activity at rat mGlu4 receptor expressed in HEK293 cells by inositol phosphate accumulation assay

[5] = biological target: Metabotropic glutamate receptor 5 (Rattus norvegicus) (UniProt P31424); assay: Potency index, ratio of IC50 for MPEP to IC50 for test compound for negative allosteric modulator activity at rat mGlu5 receptor expressed in HEK293 cells; type: cell-based

Metabotropic glutamate receptor 4, sequence (P31423 whole entry): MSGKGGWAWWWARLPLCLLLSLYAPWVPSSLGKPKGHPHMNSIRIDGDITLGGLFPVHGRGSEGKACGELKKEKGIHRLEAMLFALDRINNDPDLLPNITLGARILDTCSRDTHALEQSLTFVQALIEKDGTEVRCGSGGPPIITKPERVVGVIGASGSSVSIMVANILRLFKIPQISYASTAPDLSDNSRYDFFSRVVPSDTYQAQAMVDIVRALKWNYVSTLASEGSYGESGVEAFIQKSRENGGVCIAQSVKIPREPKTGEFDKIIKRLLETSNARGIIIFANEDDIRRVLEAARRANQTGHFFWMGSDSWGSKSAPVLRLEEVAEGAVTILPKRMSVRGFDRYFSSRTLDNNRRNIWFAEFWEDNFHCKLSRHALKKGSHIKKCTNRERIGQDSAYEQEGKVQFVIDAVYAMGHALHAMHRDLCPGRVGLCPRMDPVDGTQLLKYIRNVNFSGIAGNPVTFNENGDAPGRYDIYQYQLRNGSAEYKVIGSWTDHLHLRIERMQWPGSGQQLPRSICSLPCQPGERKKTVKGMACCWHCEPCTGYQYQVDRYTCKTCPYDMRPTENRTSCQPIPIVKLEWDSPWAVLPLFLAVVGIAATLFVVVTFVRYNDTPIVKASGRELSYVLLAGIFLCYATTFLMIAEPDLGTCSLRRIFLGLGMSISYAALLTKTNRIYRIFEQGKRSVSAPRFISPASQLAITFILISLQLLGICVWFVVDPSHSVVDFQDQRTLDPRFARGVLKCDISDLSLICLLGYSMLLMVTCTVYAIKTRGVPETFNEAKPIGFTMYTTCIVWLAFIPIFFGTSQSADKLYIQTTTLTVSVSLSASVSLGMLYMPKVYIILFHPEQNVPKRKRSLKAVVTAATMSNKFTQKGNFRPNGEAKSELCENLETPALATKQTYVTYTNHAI
Metabotropic glutamate receptor 5, sequence (P31424 whole entry): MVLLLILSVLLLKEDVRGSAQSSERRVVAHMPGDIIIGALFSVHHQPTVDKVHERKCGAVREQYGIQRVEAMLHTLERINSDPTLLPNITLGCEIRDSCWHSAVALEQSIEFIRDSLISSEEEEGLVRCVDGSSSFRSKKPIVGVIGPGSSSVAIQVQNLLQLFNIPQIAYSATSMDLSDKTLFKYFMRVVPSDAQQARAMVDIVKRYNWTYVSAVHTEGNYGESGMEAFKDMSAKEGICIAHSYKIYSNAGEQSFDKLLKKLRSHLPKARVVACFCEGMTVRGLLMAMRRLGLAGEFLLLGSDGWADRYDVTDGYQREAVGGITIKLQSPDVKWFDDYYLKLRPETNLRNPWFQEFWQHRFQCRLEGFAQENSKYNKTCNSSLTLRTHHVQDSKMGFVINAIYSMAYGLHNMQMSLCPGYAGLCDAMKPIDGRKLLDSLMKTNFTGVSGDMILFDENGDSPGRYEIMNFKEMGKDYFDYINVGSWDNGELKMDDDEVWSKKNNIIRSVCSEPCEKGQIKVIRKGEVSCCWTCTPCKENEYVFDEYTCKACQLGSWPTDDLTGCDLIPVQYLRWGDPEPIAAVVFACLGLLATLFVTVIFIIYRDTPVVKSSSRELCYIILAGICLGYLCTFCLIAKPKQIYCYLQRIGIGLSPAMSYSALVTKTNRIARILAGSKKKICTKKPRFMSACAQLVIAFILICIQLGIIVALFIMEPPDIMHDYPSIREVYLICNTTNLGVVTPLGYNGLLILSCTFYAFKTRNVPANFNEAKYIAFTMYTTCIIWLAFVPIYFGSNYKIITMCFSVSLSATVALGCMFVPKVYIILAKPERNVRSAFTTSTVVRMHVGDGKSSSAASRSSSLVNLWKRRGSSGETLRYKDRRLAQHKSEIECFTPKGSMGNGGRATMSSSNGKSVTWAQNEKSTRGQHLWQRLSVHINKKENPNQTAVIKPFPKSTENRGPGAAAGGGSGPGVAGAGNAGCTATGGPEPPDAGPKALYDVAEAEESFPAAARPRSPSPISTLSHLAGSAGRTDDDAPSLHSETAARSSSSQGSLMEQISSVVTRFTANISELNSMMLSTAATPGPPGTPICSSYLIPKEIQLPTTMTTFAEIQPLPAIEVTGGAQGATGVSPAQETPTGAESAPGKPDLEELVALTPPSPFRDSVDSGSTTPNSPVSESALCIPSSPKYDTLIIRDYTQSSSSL
Metabotropic glutamate receptor 5 (Rattus norvegicus), sequence (P31424 21-1203 limits assumed): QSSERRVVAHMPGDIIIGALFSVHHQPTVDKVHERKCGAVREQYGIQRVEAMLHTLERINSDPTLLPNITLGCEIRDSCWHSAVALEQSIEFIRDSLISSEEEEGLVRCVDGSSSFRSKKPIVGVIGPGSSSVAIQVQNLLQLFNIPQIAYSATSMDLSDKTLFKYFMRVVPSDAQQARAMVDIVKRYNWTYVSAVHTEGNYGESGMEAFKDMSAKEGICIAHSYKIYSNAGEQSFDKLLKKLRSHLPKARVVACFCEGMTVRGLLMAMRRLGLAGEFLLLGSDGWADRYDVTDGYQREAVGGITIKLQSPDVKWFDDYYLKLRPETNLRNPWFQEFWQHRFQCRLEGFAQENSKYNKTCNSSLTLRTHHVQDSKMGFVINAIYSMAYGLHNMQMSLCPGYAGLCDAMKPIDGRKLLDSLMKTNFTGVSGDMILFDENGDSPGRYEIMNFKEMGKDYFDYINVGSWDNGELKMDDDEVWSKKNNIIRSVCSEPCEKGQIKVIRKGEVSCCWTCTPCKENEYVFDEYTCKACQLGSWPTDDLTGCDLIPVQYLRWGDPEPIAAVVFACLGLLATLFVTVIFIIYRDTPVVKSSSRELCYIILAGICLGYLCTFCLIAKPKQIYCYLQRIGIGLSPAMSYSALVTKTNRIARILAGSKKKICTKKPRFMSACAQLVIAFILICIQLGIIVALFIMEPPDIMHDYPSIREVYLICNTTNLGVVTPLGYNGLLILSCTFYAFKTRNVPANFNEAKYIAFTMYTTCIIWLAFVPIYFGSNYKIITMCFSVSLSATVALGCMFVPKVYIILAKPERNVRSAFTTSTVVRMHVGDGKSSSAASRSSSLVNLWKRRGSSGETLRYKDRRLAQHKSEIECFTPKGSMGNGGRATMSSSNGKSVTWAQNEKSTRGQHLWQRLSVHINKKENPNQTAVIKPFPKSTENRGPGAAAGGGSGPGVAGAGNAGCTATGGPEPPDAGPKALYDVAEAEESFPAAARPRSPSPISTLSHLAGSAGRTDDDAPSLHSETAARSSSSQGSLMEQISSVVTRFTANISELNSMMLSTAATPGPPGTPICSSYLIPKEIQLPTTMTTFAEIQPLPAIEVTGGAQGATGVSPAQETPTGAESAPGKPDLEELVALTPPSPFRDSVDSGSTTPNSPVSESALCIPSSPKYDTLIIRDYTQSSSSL
Metabotropic glutamate receptor 4 (Rattus norvegicus), sequence (P31423 whole entry): as the sequence (P31423 whole entry) above

In the case of `COc1cc(NC(=O)c2ccccn2)ccc1NC(=O)c1ccccc1Cl`, the IC50 ([1]; read-out: IC50) is reported as over 30000 nM and the EC50 [2] is reported as 104 nM.
`N[C@@H](Cn1oc(=O)[nH]c1=O)C(=O)O` was tested, and the EC80 [3] was 100 nM.
In the case of `COc1cc(NC(=O)c2ccccn2)ccc1C#Cc1ccccc1Cl`, the IC50 ([1]; hek293) is reported as “Not Active” and the EC50 [2] is reported as 4100 nM.
In the case of `N[C@@H](CCP(=O)(O)O)C(=O)O`, the EC10 [4] is reported as 10 nM.
For `COc1cc(C#Cc2ccccn2)ccc1NC(=O)c1ccccc1Cl`, the Ratio IC50 [5] was 4, the IC50 ([1]; read-out: IC50) was 24 nM and the EC50 [2] was over 30000 nM.
